Series [1] can be described thus: Half-life in the culture medium (RPMI 1640+10% fetal calf serum FCS). In kind it is ADME, cell-free, Bos taurus. Conditions: cattle.
Series [2] is described as follows: Half-life in the CEM cell extracts. Conditions: human. It counts as ADME, CCRF-CEM.

A word on the half-life: it is the time needed for the level to fall by half in the phase considered. Read a low half-life as fast loss.

Take `CC(=O)SCSP(=O)(OCc1oc(-n2cc(C)c(=O)[nH]c2=O)cc1O)Oc1cc(-n2cc(C)c(=O)[nH]c2=O)oc1CO` (stereo unspecified): the values for the half-life in series [1] and in series [2] were 1 h and less than 0.0833 h, respectively.

For `Cc1cn(-c2cc(O)c(COP(=O)(Oc3cc(-n4cc(C)c(=O)[nH]c4=O)oc3CO)SCOC(=O)C(C)(C)C)o2)c(=O)[nH]c1=O` (stereo unspecified), the results for the half-life in series [1] and in series [2] were 6 h and 0.667 h, respectively.

Consider `CC(=O)SCCSP(=O)(OCc1oc(-n2cc(C)c(=O)[nH]c2=O)cc1O)Oc1cc(-n2cc(C)c(=O)[nH]c2=O)oc1CO` (stereo unspecified), for which the values for the half-life in series [1] and in series [2] were 7 h and less than 0.0833 h, respectively.

The values are drawn from ChEMBL document CHEMBL1152027, “The prooligonucleotide approach. I: Esterase-mediated reversibility of dithymidine S-alkyl-phosphorothiolates to dithymidine phosphorothioates” (Bioorg Med Chem Lett, 1995).
